Test system: Na^+-dependent Cl^−/HCO3^− exchanger (NCBE)
Assay: Inhibition of the Na+-dependent Cl−/HCO3− exchanger (NCBE) in human endothelial cells (pHi recovery, BCECF fluorescence, FLIPR)
Type: cell-based
Conditions: 10 μM
Procedure, shortened: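 Fluorescence rise (FLIPR, 2 min, 35 °C) tracked pHi recovery in acid-loaded, BCECF-loaded ECV-304 cells after adding Na+- and HCO3−-containing buffer with 50 μM HOE 642 and graded compound doses. Inhibition was calculated against full-recovery and bicarbonate-free no-recovery controls.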

Row | SMILES | Residual activity % of the NCBE at 10 μM
1 | C[C@@H](c1ccccc1)N(Cc1ccc(-c2ccccc2S(=O)(=O)NC#N)cc1)C(=O)C(C(=O)Cc1ccccc1)c1ccccc1 (stereo partly shown) [Example 136] | 93.6%
2 | Cc1ccc(C(=O)N(CCO)Cc2ccc(-c3ccccc3S(=O)(=O)NC#N)cc2)cc1 [Example 68] | 94.4%
3 | Cc1ccccc1CN(Cc1ccc(-c2ccccc2S(=O)(=O)NC#N)cc1)C(=O)CC1CCCC1 [Example 362] | 44.1%
4 | N#CNS(=O)(=O)c1ccccc1-c1ccc(CN(CC2CCCCC2)C(=O)C(=O)c2ccco2)cc1 [Example 258] | 95.8%
5 | N#CNS(=O)(=O)c1ccccc1-c1ccc(CN(C(=O)CCCc2cccs2)C2CC2)cc1 [Example 189] | 72.5%
6 | N#CNS(=O)(=O)c1ccccc1-c1ccc(CN(Cc2ccc3c(c2)OCO3)C(=O)c2cccs2)cc1 [Example 87] | 54.8%
7 | N#CNS(=O)(=O)c1ccccc1-c1ccc(CN(CCCc2ccccc2)C(=O)Cc2cccs2)cc1 [Example 236] | 35.1%
8 | C[C@@H](c1ccccc1)N(Cc1ccc(-c2ccccc2S(=O)(=O)NC#N)cc1)C(=O)Cc1cccs1 [Example 132] | 63.8%
9 | COc1cc(CN(Cc2ccc(-c3ccccc3S(=O)(=O)NC#N)cc2)C(=O)Cc2ccc(Cl)cc2)cc(OC)c1OC [Example 155] | 34.2%
10 | COc1ccc(CN(Cc2ccc(-c3ccccc3S(=O)(=O)NC#N)cc2)C(=O)c2ccccc2Cl)cc1 [Example 57] | 82.1%
11 | Cc1ccc(CN(Cc2ccc(-c3ccccc3S(=O)(=O)NC#N)cc2)C(=O)c2ccccc2F)cc1 [Example 95] | 74.7%
12 | COc1ccc(CN(Cc2ccc(-c3ccccc3S(=O)(=O)NC#N)cc2)C(=O)Cc2cccs2)cc1 [Example 27] | 35.5%
13 | N#CNS(=O)(=O)c1ccccc1-c1ccc(CN(Cc2ccccc2)C(=O)c2ccccc2F)cc1 [Example 37] | 52.0%
14 | COc1ccccc1CN(Cc1ccc(-c2ccccc2S(=O)(=O)NC#N)cc1)C(=O)Cc1ccccc1 [Example 124] | 46.5%
15 | N#CNS(=O)(=O)c1ccccc1-c1ccc(CN(C(=O)Cc2cccs2)C2CCCc3ccccc32)cc1 (stereo not shown) [Example 315] | 23.5%
16 | N#CNS(=O)(=O)c1ccccc1-c1ccc(CN(CC2CC2)C(=O)Cc2cccs2)cc1 [Example 144] | 60.3%
17 | CC(C)=CCCC(C)=CCN(Cc1ccc(-c2ccccc2S(=O)(=O)NC#N)cc1)C(=O)CC1CCCCC1 [Example 353] | 47.9%
18 | CC(C)CN(Cc1ccc(-c2ccccc2S(=O)(=O)NC#N)cc1)C(=O)C(c1ccccc1)c1ccccc1 [Example 112] | 90.4%
19 | C/C=C/C(=O)N(Cc1ccc(OC)cc1)Cc1ccc(-c2ccccc2S(=O)(=O)NC#N)cc1 [Example 64] | 88.0%
20 | N#CNS(=O)(=O)c1ccccc1-c1ccc(CN(CC2CCCCC2)C(=O)C(NC(=O)OCc2ccccc2)c2ccccc2)cc1 (stereo not shown) [Example 265] | 68.9%
21 | N#CNS(=O)(=O)c1ccccc1-c1ccc(CN(Cc2ccc(C(F)(F)F)cc2)C(=O)c2ccccc2Cl)cc1 [Example 109] | 75.4%
22 | C#CCN(Cc1ccc(-c2ccccc2S(=O)(=O)NC#N)cc1)C(=O)CCC1CCCCC1 [Example 249] | 76.1%
23 | COc1cccc(CN(Cc2ccc(-c3ccccc3S(=O)(=O)NC#N)cc2)C(=O)c2cccs2)c1 [Example 86] | 57.0%
24 | COc1ccc(CCN(Cc2ccc(-c3ccccc3S(=O)(=O)NC#N)cc2)C(=O)c2cc3ccccc3s2)cc1 [Example 80] | 66.7%
25 | N#CNS(=O)(=O)c1ccccc1-c1ccc(CN(CC2CC2)C(=O)COc2ccccc2)cc1 [Example 168] | 96.4%

Row | SMILES | Residual activity % of the NCBE at 10 μM
26 | N#CNS(=O)(=O)c1ccccc1-c1ccc(CN(CCO)C(=O)C2CCCCC2)cc1 [Example 14] | 88.7%
27 | N#CNS(=O)(=O)c1ccccc1-c1ccc(CN(Cc2ccccc2)C(=O)CCC2CCCCC2)cc1 [Example 7] | 33.0%
28 | N#CNS(=O)(=O)c1ccccc1-c1ccc(CN(Cc2ccc(Cl)cc2Cl)C(=O)Cc2cccs2)cc1 [Example 270] | 33.9%
29 | CC(=O)N(Cc1ccc(-c2ccccc2S(=O)(=O)NC#N)cc1)Cc1ccco1 [Example 178] | 70.6%
30 | COc1ccccc1C(=O)N(Cc1ccc(-c2ccccc2S(=O)(=O)NC#N)cc1)Cc1ccccc1C [Example 332] | 31.7%
31 | COCCN(Cc1ccc(-c2ccccc2S(=O)(=O)NC#N)cc1)C(=O)CCCc1cccs1 [Example 187] | 62.4%
32 | N#CNS(=O)(=O)c1ccccc1-c1ccc(CN(Cc2ccc(Cl)cc2)C(=O)Cc2cccs2)cc1 [Example 28] | 95.2%
33 | N#CNS(=O)(=O)c1ccccc1-c1ccc(CN(Cc2cccc3ccccc23)C(=O)CCc2cccs2)cc1 [Example 289] | 39.2%
34 | N#CNS(=O)(=O)c1ccccc1-c1ccc(CN(Cc2ccccn2)C(=O)Cc2c[nH]c3ccccc23)cc1 [Example 204] | 52.4%
35 | N#CNS(=O)(=O)c1ccccc1-c1ccc(CN(Cc2cccs2)C(=O)C(NC(=O)OCc2ccccc2)c2ccccc2)cc1 (stereo not shown) [Example 251] | 83.9%
36 | CC(C)(C)OC(=O)C(c1ccccc1)N(Cc1ccc(-c2ccccc2S(=O)(=O)NC#N)cc1)C(=O)Cc1ccccc1Br (stereo not shown) [Example 275] | 54.6%
37 | N#CNS(=O)(=O)c1ccccc1-c1ccc(CN(Cc2ccc(Cl)cc2)C(=O)c2ccccc2Cl)cc1 [Example 58] | 59.4%
38 | N#CNS(=O)(=O)c1ccccc1-c1ccc(CN(Cc2ccc(C(F)(F)F)cc2)C(=O)Cc2cccs2)cc1 [Example 235] | 67.1%
39 | COc1cccc(CN(Cc2ccc(-c3ccccc3S(=O)(=O)NC#N)cc2)C(=O)Nc2c(F)cccc2F)c1 [Example 301] | 87.9%
40 | COc1ccccc1C(=O)N(Cc1ccc(-c2ccccc2S(=O)(=O)NC#N)cc1)Cc1ccc2ccccc2c1 [Example 330] | 14.4%
41 | N#CNS(=O)(=O)c1ccccc1-c1ccc(CN(Cc2cccc(Cl)c2)C(=O)CCc2cccs2)cc1 [Example 290] | 45.8%
42 | N#CNS(=O)(=O)c1ccccc1-c1ccc(CN(CCc2cccs2)C(=O)Cc2cccs2)cc1 [Example 141] | 71.1%
43 | CC(C)(C)CC(=O)N(CCOc1ccccc1)Cc1ccc(-c2ccccc2S(=O)(=O)NC#N)cc1 [Example 160] | 71.6%
44 | CN(Cc1ccc(-c2ccccc2S(=O)(=O)NC#N)cc1)C(=O)CCCCc1cccs1 [Example 222] | 76.7%
45 | N#CNS(=O)(=O)c1ccccc1-c1ccc(CN(Cc2ccccc2Cl)C(=O)Cc2ccc(Cl)cc2)cc1 [Example 152] | 29.5%
46 | N#CNS(=O)(=O)c1ccccc1-c1ccc(CN(CCO)C(=O)c2ccccc2Cl)cc1 [Example 56] | 69.0%
47 | N#CNS(=O)(=O)c1ccccc1-c1ccc(CN(CCOc2ccccc2)C(=O)COc2ccccc2)cc1 [Example 166] | 57.9%
48 | N#CNS(=O)(=O)c1ccccc1-c1ccc(CN(Cc2cccs2)C(=O)CCCCc2ccccc2)cc1 [Example 253] | 35.3%
49 | N#CNS(=O)(=O)c1ccccc1-c1ccc(CN(Cc2ccccc2)C(=O)CCCCc2ccccc2)cc1 [Example 244] | 60.4%
50 | C[C@@H](c1ccccc1)N(Cc1ccc(-c2ccccc2S(=O)(=O)NC#N)cc1)C(=O)c1cc2ccccc2s1 [Example 73] | 61.0%

Same assay, conditions: 10 μM compound; human endothelial cells (ECV-304); related to 100% and 0% pHi recovery controls

Row | SMILES | Residual activity of the NCBE at 10 μM
51 | COCCOc1cc(-c2ccccc2S(=O)(=O)NC#N)ccc1CN(Cc1ccccc1)C(=O)Cc1cccs1 [Example 560, 4′-{[Benzyl-2-(thiophen-2-yl)acetylamino]methyl}-3′-(2-methoxy)ethoxy-biphenyl-2-sulfonylcyanamide] | 8.0%

Same assay, conditions: compound at 10 μM; sub-table with R7 substituent

Row | SMILES | Residual activity % of the NCBE at 10 μM
52 | Cc1ccc(-c2ccc(CN(Cc3ccc4ccccc4c3)C(=O)C(C)c3cccs3)cc2)c(S(=O)(=O)NC#N)c1 (stereo not shown) [Example 523] | 92.3%
53 | Cc1ccc(-c2ccc(CN(Cc3ccc4ccccc4c3)C(=O)CC3CCCCC3)cc2)c(S(=O)(=O)NC#N)c1 [Example 547] | 76.5%
54 | Cc1ccc(-c2ccc(CN(Cc3cccs3)C(=O)Cc3ccc(Cl)cc3)cc2)c(S(=O)(=O)NC#N)c1 [Example 533] | 75.5%
55 | Cc1ccc(-c2ccc(CN(CCc3ccccc3)C(=O)C(C)c3cccs3)cc2)c(S(=O)(=O)NC#N)c1 (stereo not shown) [Example 526] | 64.9%
56 | Cc1ccc(-c2ccc(CN(Cc3cccc(Cl)c3Cl)C(=O)Cc3cccs3)cc2)c(S(=O)(=O)NC#N)c1 [Example 520] | 85.9%
57 | Cc1ccc(-c2ccc(CN(Cc3ccc4ccccc4c3)C(=O)Cc3ccc(Cl)cc3)cc2)c(S(=O)(=O)NC#N)c1 [Example 531] | 75.6%
58 | Cc1ccc(-c2ccc(CN(Cc3ccccc3Cl)C(=O)CC3CCCCC3)cc2)c(S(=O)(=O)NC#N)c1 [Example 548] | 65.2%
59 | Cc1ccc(-c2ccc(CN(Cc3ccccc3Cl)C(=O)Cc3ccc(Cl)cc3)cc2)c(S(=O)(=O)NC#N)c1 [Example 532] | 71.0%
60 | Cc1ccc(-c2ccc(CN(Cc3cccs3)C(=O)Cc3cccs3)cc2)c(S(=O)(=O)NC#N)c1 [Example 517] | 86.2%
61 | Cc1ccc(-c2ccc(CN(Cc3ccccc3)C(=O)Cc3ccsc3)cc2)c(S(=O)(=O)NC#N)c1 [Example 537] | 54.4%

Source: patent US6369069B1 (Aventis Pharma Deutschland GmbH, priority 1998, dated 2002)
